Results as given in patent US9108983B2, “Pyrrole compounds, a process for their preparation and pharmaceutical compositions containing them” (LES LABORATOIRES SERVIER, priority 2013, dated 2015).
Structures can show the parent of a compound that is named as a salt. Where two headings read alike, the source gives them in different places.

What was measured:
[1] = target: Bcl-2 protein (histag-Bcl-2, UniProtKB P10415) (Homo sapiens (Human), UniProt P10415); assay: Inhibition of Bcl-2 by the fluorescence polarisation technique; format: binding; settings: incubation for 2 hours, read-out: IC50 (nM) Bcl-2 FP
Sequence of Bcl-2 protein (P10415 whole entry): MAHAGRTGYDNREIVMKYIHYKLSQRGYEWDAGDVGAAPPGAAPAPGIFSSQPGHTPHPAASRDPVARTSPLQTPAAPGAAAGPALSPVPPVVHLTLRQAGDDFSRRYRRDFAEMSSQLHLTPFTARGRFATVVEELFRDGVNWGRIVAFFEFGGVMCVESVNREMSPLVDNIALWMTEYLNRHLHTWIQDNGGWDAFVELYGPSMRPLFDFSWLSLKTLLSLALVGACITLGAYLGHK
Outline: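 In pH 7.4 buffer (Hepes 10 mM, NaCl 150 mM, Tween20 0.05%), test compounds at increasing concentrations competed with a fluorescein peptide (1.00×10^−8 M final) for histag-Bcl-2 (2.50×10^−8 M final). Readout was fluorescence polarisation after a 2 h incubation.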

[2] = tested on: RS4;11 leukaemia tumour line; assay: In vitro cytotoxicity (Microculture Tetrazolium Assay); format: cell-based; settings: RS4;11 cells, exposed for 48 hours, cell viability, read-out: IC50 (nM) MTT RS4;11
Method: The cytotoxicity studies were carried out on the RS4;11 leukaemia tumour line.
The cells are distributed onto microplates and exposed to the test compounds for 48 hours.
The cell viability is then quantified by a colorimetric assay, the Microculture Tetrazolium Assay (Cancer Res., 1987, 47, 939-942).

Cc1c(C(=O)N(c2ccc(O)cc2)c2ccnc(C#N)n2)cc(-c2cc(Cl)ccc2C(=O)N2Cc3ccccc3C[C@H]2CN2CCOCC2)n1C [Example 404, 5-(5-Chloro-2-{[(3S)-3-(morpholin-4-ylmethyl)-3,4-dihydroisoquinolin-2(1H)-yl]carbonyl}phenyl)-N-(2-cyanopyrimidin-4-yl)-N-(4-hydroxyphenyl)-1,2-dimethyl-1H-pyrrole-3-carboxamide hydrochloride]
IC50 [1]: 24.4 nM | IC50 ([2]; Homo sapiens, RS4-11, 48 h): 85.5 nM

Cc1c(N(C(=O)c2cc(-c3cc(Cl)ccc3C(=O)N3Cc4ccccc4CC3C(F)(F)F)n(C)c2C)c2ccc(O)cc2)cc(C#N)n1C (stereo not drawn) [Example 454, 5-(5-Chloro-2-{[3-(trifluoromethyl)-3,4-dihydroisoquinolin-2(1H)-yl]carbonyl}phenyl)-N-(5-cyano-1,2-dimethyl-1H-pyrrol-3-yl)-N-(4-hydroxyphenyl)-1,2-dimethyl-1H-pyrrole-3-carboxamide]
IC50 [1]: 6.5 nM | IC50 ([2]; Homo sapiens, RS4-11, 48 h): 158 nM

Cc1c(C(=O)N(c2ccc(O)cc2)c2cnc3c(ccn3C)c2)cc(-c2cc3c(cc2C(=O)N2Cc4ccccc4C[C@H]2C)OCO3)n1C [Example 42, N-(4-Hydroxyphenyl)-1,2-dimethyl-5-(6-{[(3R)-3-methyl-3,4-dihydroisoquinolin-2(1H)-yl]carbonyl}-1,3-benzodioxol-5-yl)-N-(1-methyl-1H-pyrrolo[2,3-b]pyridin-5-yl)-1H-pyrrole-3-carboxamide]
IC50 [1]: 5.2 nM | IC50 ([2]; Homo sapiens, RS4-11, 48 h): 4.36 nM

Cc1c(C(=O)N(c2ccc(O)cc2)c2cnc3c(ccn3C)c2)cc(-c2cc(Cl)ccc2C(=O)N2Cc3ccccc3C[C@H]2CCCN2CCOCC2)n1C [Example 393, 5-(5-Chloro-2-{[(3R)-3-[3-(morpholin-4-yl)propyl]-3,4-dihydroisoquinolin-2(1H)-yl]carbonyl}phenyl)-N-(4-hydroxyphenyl)-1,2-dimethyl-N-(1-methyl-1H-pyrrolo[2,3-b]pyridin-5-yl)-1H-pyrrole-3-carboxamide hydrochloride]
IC50 [1]: 2.1 nM | IC50 ([2]; Homo sapiens, RS4-11, 48 h): 1.95 nM

CNCCn1c(-c2cc3c(cc2C(=O)N2Cc4ccccc4C[C@H]2C)OCO3)cc(C(=O)N(c2ccc(O)cc2)c2cnn(C)c2)c1C [Example 26, N-(4-Hydroxyphenyl)-2-methyl-1-[2-(methylamino)ethyl]-5-(6-{[(3R)-3-methyl-3,4-dihydroisoquinolin-2(1H)-yl]carbonyl}-1,3-benzodioxol-5-yl)-N-(1-methyl-1H-pyrazol-4-yl)-1H-pyrrole-3-carboxamide hydrochloride]
IC50 [1]: 4.1 nM | IC50 ([2]; Homo sapiens, RS4-11, 48 h): 541 nM

Cn1cc(N(C(=O)c2cc(-c3cc4c(cc3C(=O)N3Cc5ccccc5C[C@H]3CN3CCOCC3)OCO4)n(C)c2C(F)(F)F)c2ccc(O)cc2)cn1 [Example 75, N-(4-Hydroxyphenyl)-1-methyl-N-(1-methyl-4H-pyrazol-4-yl)-5-(6-{[(3S)-3-(morpholin-4-ylmethyl)-3,4-dihydroisoquinolin-2(1TH-yl]carbonyl}-1,3-benzodioxol-5-yl)-2-(trifluoromethyl)-1H-pyrrole-3-carboxamide hydrochloride]
IC50 [1]: 52.9 nM | IC50 [2]: 367 nM

Cc1c(N(C(=O)c2cc(-c3cc(F)ccc3C(=O)N3Cc4ccccc4C[C@H]3CN3CCOCC3)n(C)c2C)c2ccc(O)cc2)cc(C#N)n1C [Example 421, N-(5-Cyano-1,2-dimethyl-1H-pyrrol-3-yl)-5-(5-fluoro-2-{[(3S)-3-(morpholin-4-ylmethyl)-3,4-dihydroisoquinolin-2(1H)-yl]carbonyl}phenyl)-N-(4-hydroxyphenyl)-1,2-dimethyl-1H-pyrrole-3-carboxamide hydrochloride]
IC50 [1]: 2.5 nM | IC50 ([2]; Homo sapiens, RS4-11, 48 h): 3.73 nM

Cc1c(C(=O)N(c2ccc(O)cc2)c2cnc3c(c2)CCN3C)cc(-c2cc(Cl)ccc2C(=O)N2Cc3ccccc3C[C@H]2CN2CCOCC2)n1C [Example 445, 5-(5-Chloro-2-{[(3S)-3-(morpholin-4-ylmethyl)-3,4-dihydroisoquinolin-2(1H)-yl]carbonyl}phenyl)-N-(4-hydroxyphenyl)-1,2-dimethyl-N-[1-(trideuteriomethyl)-2,3-dihydro-H-pyrrolo[2,3-b]pyridin-5-yl]-1H-pyrrole-3-carboxamide hydrochloride]
IC50 ([1]; hydrochloride): 2 nM | IC50 ([2]; hydrochloride): 19 nM

Cc1c(C(=O)N(c2ccc(O)c(F)c2)c2cnn(C)c2)cc(-c2cc(Cl)ccc2C(=O)N2Cc3ccccc3C[C@H]2CN2CCOCC2)n1C [Example 399, 5-(5-Chloro-2-{[(3S)-3-(morpholin-4-ylmethyl)-3,4-dihydroisoquinolin-2(1H)-yl]carbonyl}phenyl)-N-(3-fluoro-4-hydroxyphenyl)-1,2-dimethyl-N-(1-methyl-1H-pyrazol-4-yl)-1H-pyrrole-3-carboxamide hydrochloride]
IC50 [1]: 9.9 nM | IC50 ([2]; Homo sapiens, RS4-11, 48 h): 155 nM

Cc1c(C(=O)N(c2ccc(O)cc2)c2cnn(C)c2)cc(-c2cc3c(cc2C(=O)N2Cc4ccccc4C[C@H]2C)OCO3)n1CCN1CCOCC1 [Example 96, N-(4-Hydroxyphenyl)-2-methyl-5-(6-{[(3R)-3-methyl-3,4-dihydroisoquinolin-2(1H)-yl]carbonyl}-1,3-benzodioxol-5-yl)-N-(1-methyl-1H-pyrazol-4-yl)-1-[2-(morpholin-4-yl)ethyl]-1H-pyrrole-3-carboxamide hydrochloride]
IC50 [1]: 13.5 nM | IC50 ([2]; Homo sapiens, RS4-11, 48 h): 161 nM

Cc1c(C(=O)N(c2ccc(O)cc2)c2cnc3c(c2)CCN3C)cc(-c2cc(Cl)ccc2C(=O)N2Cc3ccccc3C[C@H]2CCCN2CCOCC2)n1C [Example 394, 5-(5-Chloro-2-{[(3R)-3-[3-(morpholin-4-yl)propyl]-3,4-dihydroisoquinolin-2(1H)-yl]carbonyl}phenyl)-N-(4-hydroxyphenyl)-1,2-dimethyl-N-(1-methyl-2,3-dihydro-1H-pyrrolo[2,3-b]pyridin-5-yl)-1H-pyrrole-3-carboxamide]
IC50 [1]: 2.5 nM | IC50 ([2]; Homo sapiens, RS4-11, 48 h): 2.76 nM

Cc1c(C(=O)N(c2ccc(O)cc2)c2cnc3c(ccn3C)c2)cc(-c2cc(Cl)ccc2C(=O)N2Cc3ccccc3C[C@H]2CN2CCN(C)CC2)n1C [Example 102, 5-(5-Chloro-2-{[(3S)-3-[(4-methylpiperazin-1-yl)methyl]-3,4-dihydroisoquinolin-2(1H)-yl]carbonyl}phenyl)-N-(4-hydroxyphenyl)-1,2-dimethyl-N-(1-methyl-1H-pyrrolo[2,3-b]pyridin-5-yl)-1H-pyrrole-3-carboxamide trihydrochloride]
IC50 [1]: 2 nM | IC50 ([2]; Homo sapiens, RS4-11, 48 h): 6.51 nM

Cc1c(N(C(=O)c2cc(-c3cc(F)ccc3C(=O)N3Cc4ccccc4C[C@H]3CN3CCOCC3)n(C)c2C)c2ccc(O)cc2)cnn1C [Example 453, N-(1,5-Dimethyl-1H-pyrazol-4-yl)-5-(5-fluoro-2-{[(3S)-3-(morpholin-4-ylmethyl)-3,4-dihydroisoquinolin-2(1H)-yl]carbonyl}phenyl)-N-(4-hydroxyphenyl)-1,2-dimethyl-1H-pyrrole-3-carboxamide hydrochloride]
IC50 [1]: 6.9 nM | IC50 ([2]; Homo sapiens, RS4-11, 48 h): 99.9 nM

Cc1c(C(=O)N(c2ccc(O)cc2)c2cnc(OCCN3CCOCC3)nc2)cc(-c2cc(Cl)ccc2C(=O)N2Cc3ccccc3C[C@H]2C)n1C [Example 456, 5-(5-Chloro-2-{[(3R)-3-methyl-3,4-dihydroisoquinolin-2(1H)-yl]-carbonyl}phenyl)-N-(4-hydroxyphenyl)-1,2-dimethyl-N-{2-[2-(morpholin-4-yl)-ethoxy]pyrimidin-5-yl}-1H-pyrrole-3-carboxamide hydrochloride]
IC50 [1]: 2.7 nM | IC50 ([2]; Homo sapiens, RS4-11, 48 h): 80.6 nM

CCn1cc(C(=O)N(c2ccc(O)cc2)c2ccc3c(ccn3C)c2)cc1-c1cc(Cl)ccc1C(=O)N1Cc2ccccc2C[C@H]1CN1CCN(C)CC1 [Example 6, 5-(5-Chloro-2-{[(3S)-3-[(4-methylpiperazin-1-yl)methyl]-3,4-dihydroisoquinolin-2(1H)-yl]carbonyl}phenyl)-1-ethyl-N-(4-hydroxyphenyl)-N-(1-methyl-1H-indol-5-yl)-1H-pyrrole-3-carboxamide]
IC50 [1]: 25.2 nM | IC50 ([2]; Homo sapiens, RS4-11, 48 h): 69 nM

Cl.[2H]C([2H])([2H])n1cc(N(C(=O)c2cc(-c3cc(Cl)ccc3C(=O)N3Cc4ccccc4C[C@H]3CN3CCOCC3)n(C)c2C)c2ccc(O)cc2)cn1 [Example 416, 5-(5-Chloro-2-{[(3S)-3-(morpholin-4-ylmethyl)-3,4-dihydroisoquinolin-2(1H)-yl]carbonyl}phenyl)-N-(4-hydroxyphenyl)-1,2-dimethyl-N-[1-(trideuteriomethyl)-1H-pyrazol-4-yl]-1H-pyrrole-3-carboxamide hydrochloride]
IC50 [1]: 2.9 nM | IC50 ([2]; Homo sapiens, RS4-11, 48 h): 42.5 nM

Cc1c(C(=O)N(c2ccc(O)cc2)c2ccc(F)c(C#N)c2)cc(-c2cc(F)ccc2C(=O)N2Cc3ccccc3C[C@H]2CN2CCOCC2)n1C [Example 437, N-(3-Cyano-4-fluorophenyl)-5-(5-fluoro-2-{[(3S)-3-(morpholin-4-ylmethyl)-3,4-dihydroisoquinolin-2(1H)-yl]carbonyl}phenyl)-N-(4-hydroxyphenyl)-1,2-dimethyl-1H-pyrrole-3-carboxamide hydrochloride]
IC50 [1]: 4.4 nM | IC50 ([2]; Homo sapiens, RS4-11, 48 h): 70.5 nM

COc1cc(C#N)cc(N(C(=O)c2cc(-c3cc(F)ccc3C(=O)N3Cc4ccccc4C[C@H]3CN3CCOCC3)n(C)c2C)c2ccc(O)cc2)c1 [Example 425, N-(3-Cyano-5-methoxyphenyl)-5-(5-fluoro-2-{[(3S)-3-(morpholin-4-ylmethyl)-3,4-dihydroisoquinolin-2(1H)-yl]carbonyl}phenyl)-N-(4-hydroxyphenyl)-1,2-dimethyl-1H-pyrrole-3-carboxamide hydrochloride]
IC50 [1]: 4.2 nM | IC50 ([2]; Homo sapiens, RS4-11, 48 h): 62 nM
